Measurements: patent publication US9988371B2, “Benzimidazole analogues and related methods” (The Arizona Board of Regents, on Behalf of the University …, priority 2014, dated 2018)

Key:
[1] = target: T1, FYN (Homo sapiens, UniProt P06241); experiment: KINOMEscan kinase panel; assay type: binding; conditions: 50 nM
T1 construct: purchased KINOMEscan
Procedure: (§1) Pz-1 was exceptionally potent on RET and all tested RET mutants including gatekeeper mutants RET/V804M at less than 1 nM (FIGS. 1-3). The RET biochemical assay described herein was not suitable to determine activity of inhibitors having an IC50 of less than 1 nM, as the concentration of the RET enzyme in the assay was 2 nM. An intermediate compound was therefore used for the kinetics studies. […] Pz-1 was screened at concentration of 50 nM against 91 kinases in KINOMEscan, representing a diversity of each Kinome cluster. The kinase assays in KINOMEScan were more sensitive than the biochemical assays described above.

[2] = target: T2, SRC (Homo sapiens, UniProt P12931); experiment: KINOMEscan kinase panel; assay type: binding; conditions: 50 nM
T2 construct: purchased KINOMEscan
Procedure: as §1

[3] = target: T3, TRKB (Homo sapiens, UniProt Q16620); experiment: KINOMEscan kinase panel; assay type: binding; conditions: 50 nM
T3 construct: purchased KINOMEscan
Procedure: as §1

[4] = target: T4, TRKC (Homo sapiens, UniProt Q16288); experiment: KINOMEscan kinase panel; assay type: binding; conditions: 50 nM
T4 construct: purchased KINOMEscan
Procedure: as §1

[5] = system: GKA; experiment: KINOMEscan kinase panel; assay type: binding; conditions: 50 nM
Procedure: as §1

[6] = target: T5, RET/C634W (Homo sapiens, UniProt P07949, C634W); experiment: RET auto-phosphorylation immunoblot in TT cells; assay type: cell-based; conditions: 1 nM
T5 construct: RET protein endogenously expressed in TT cells; endogenous in cells; host or cells: TT (human medullary thyroid carcinoma)
Procedure: FIG. 3: Photographs of blots showing inhibition of RET protein endogenously expressed in TT cells (human MTC cell line expressing RET/C634W) by indicated concentrations of Pz-1 or vehicle (NT: not treated) and reduced effects in thyroid non-transformed Nthy-ori-3-1 cells. Serum-starved human TT and thyroid non-transformed Nthy-ori-3-1 cell lines were treated for 2 hr with indicated concentrations of Pz-1. 50 μg of total cell lysates were subjected to immunoblotting with anti-phospho-Y1062 (αp1062) and anti-phospho-905 (αpY905) RET antibodies, anti-phospho-MAPK (αpMAPK, T302/Y304), and anti-phospho-SHC (αpSHC, Y317) antibodies. The blots were normalized using anti-RET (αRET) and anti-SHC (αSHC).
The inhibition of RET auto-phosphorylation by Pz-1 was measured in several different cell lines including NIH3T3 fibroblasts expressing RET/C634Y or RET/M918T, TT expressing RET/C634W (MTC), Nthy-ory-3-1 (thyroid, non-transformed with RET; negative control), HEK293/RET/PTC1 (CCDC6-RET that can be found in PTC & lung cancer), HEK293/RET-KIF5B (that can be found in lung cancer), HEK293/RET/PTC3 (NCOA4-RET, that can be found in PTC & lung cancer), and HEK293 transfected with RET/C634R-V804M (FIGS. 1-3). […]
Protein lysates were prepared according to standard procedures. […] Immune complexes were detected with the enhanced chemiluminescence kit (Amersham Pharmacia Biotech, Little Chalfort, UK). […]

T5 sequence (P07949 29-1114 C634W): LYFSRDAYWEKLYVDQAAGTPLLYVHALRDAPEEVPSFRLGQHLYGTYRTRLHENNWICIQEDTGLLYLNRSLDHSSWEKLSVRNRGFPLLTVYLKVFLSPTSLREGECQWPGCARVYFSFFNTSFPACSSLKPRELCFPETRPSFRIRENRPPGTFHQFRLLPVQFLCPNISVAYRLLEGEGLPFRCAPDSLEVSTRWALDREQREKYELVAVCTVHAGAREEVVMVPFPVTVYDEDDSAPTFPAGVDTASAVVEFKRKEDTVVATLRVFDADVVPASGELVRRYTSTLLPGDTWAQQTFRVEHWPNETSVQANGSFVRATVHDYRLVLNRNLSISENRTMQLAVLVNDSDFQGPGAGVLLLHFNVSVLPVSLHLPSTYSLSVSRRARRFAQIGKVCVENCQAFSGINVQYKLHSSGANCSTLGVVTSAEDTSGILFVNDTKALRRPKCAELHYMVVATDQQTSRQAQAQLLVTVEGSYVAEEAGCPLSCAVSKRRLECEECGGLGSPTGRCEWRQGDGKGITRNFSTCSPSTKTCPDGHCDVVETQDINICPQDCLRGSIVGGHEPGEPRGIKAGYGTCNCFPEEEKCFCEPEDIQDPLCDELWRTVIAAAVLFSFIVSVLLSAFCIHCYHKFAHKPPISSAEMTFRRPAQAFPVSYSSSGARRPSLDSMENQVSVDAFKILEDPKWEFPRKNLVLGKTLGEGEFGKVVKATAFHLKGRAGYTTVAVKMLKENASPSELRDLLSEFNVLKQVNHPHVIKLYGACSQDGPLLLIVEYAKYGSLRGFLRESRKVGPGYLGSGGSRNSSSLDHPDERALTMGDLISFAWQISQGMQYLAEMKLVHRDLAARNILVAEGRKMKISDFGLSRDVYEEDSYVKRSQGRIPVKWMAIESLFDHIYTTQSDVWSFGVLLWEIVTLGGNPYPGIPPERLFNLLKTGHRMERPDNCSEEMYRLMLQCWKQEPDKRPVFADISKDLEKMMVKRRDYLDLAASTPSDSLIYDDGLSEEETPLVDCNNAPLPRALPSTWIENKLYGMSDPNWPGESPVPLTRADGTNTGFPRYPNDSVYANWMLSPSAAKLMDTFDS
T4 sequence (Q16288 32-839): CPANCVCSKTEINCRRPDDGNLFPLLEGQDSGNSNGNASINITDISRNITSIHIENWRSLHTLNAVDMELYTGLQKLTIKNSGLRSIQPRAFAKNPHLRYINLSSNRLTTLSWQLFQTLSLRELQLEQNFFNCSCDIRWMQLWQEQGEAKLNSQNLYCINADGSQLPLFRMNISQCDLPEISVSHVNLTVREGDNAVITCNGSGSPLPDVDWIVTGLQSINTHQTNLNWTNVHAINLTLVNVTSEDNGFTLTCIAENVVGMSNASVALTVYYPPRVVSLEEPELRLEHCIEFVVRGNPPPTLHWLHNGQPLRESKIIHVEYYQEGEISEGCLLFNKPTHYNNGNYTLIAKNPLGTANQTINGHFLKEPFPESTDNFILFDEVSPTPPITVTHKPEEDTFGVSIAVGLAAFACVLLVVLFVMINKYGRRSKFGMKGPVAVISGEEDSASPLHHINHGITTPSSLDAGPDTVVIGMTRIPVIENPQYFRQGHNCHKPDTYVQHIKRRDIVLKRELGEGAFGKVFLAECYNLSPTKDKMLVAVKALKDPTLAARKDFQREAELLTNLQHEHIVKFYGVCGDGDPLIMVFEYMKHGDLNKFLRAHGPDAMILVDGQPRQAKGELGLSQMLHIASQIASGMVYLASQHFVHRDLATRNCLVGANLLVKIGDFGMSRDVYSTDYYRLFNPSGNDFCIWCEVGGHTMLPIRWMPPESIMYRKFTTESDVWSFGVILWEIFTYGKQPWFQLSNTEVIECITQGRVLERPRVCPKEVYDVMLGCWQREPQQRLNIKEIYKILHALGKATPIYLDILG
T2 sequence (P12931 whole entry): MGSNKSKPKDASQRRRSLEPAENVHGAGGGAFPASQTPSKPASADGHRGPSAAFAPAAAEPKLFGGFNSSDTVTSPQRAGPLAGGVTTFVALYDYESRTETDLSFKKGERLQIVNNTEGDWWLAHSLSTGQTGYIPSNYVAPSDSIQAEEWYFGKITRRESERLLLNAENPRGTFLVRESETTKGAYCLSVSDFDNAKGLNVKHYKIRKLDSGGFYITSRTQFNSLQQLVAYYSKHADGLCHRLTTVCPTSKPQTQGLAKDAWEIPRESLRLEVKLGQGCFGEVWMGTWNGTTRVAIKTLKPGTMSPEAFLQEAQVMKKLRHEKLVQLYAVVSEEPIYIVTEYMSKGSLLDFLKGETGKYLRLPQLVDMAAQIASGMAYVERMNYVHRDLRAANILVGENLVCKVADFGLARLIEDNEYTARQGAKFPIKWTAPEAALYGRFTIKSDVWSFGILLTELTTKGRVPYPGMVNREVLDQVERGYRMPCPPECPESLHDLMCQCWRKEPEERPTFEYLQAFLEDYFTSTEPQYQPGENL
T3 sequence (Q16620 32-822): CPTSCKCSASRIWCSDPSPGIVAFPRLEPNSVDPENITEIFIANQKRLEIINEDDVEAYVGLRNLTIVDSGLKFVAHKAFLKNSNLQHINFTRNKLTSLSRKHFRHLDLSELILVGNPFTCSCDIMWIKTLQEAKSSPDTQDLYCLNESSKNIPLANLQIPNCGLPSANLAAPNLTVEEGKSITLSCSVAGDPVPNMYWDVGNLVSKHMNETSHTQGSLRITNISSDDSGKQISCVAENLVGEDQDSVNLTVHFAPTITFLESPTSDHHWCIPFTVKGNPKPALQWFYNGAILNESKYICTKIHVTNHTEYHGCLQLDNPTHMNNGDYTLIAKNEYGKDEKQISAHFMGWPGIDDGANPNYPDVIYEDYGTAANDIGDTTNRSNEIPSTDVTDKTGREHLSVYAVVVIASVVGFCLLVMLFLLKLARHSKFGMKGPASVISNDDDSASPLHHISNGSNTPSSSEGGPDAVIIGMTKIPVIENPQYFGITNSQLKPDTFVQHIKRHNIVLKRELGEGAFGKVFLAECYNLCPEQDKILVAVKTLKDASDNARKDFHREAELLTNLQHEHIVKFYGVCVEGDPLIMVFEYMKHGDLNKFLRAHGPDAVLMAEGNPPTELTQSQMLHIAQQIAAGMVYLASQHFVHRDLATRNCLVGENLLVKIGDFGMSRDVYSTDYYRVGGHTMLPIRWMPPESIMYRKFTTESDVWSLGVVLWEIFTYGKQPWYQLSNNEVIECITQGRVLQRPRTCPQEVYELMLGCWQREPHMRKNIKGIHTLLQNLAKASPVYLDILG
T1 sequence (P06241 whole entry): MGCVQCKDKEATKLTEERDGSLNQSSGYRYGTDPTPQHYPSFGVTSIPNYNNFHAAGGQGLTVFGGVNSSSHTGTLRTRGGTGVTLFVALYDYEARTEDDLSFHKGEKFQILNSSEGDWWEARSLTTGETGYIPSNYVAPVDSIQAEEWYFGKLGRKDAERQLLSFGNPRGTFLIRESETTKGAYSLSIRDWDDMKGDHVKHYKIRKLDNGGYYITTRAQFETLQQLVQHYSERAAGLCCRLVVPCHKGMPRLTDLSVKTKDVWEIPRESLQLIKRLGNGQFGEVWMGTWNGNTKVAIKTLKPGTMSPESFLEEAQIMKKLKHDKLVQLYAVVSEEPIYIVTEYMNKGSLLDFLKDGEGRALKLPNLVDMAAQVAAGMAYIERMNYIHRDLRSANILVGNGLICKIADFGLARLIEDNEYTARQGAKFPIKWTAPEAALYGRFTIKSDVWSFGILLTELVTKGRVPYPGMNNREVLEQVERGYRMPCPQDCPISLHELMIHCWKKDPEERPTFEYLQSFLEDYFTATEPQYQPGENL

`Cn1cc(-c2ccc3c(c2)ncn3-c2ccc(CC(=O)Nc3cc(C(C)(C)C)on3)cc2)cn1` [Pz-1, N-(5-(tert-butyl)isoxazol-3-yl)-2-(4-(5-(1-methyl-1H-pyrazol-4-yl)-1H-benzo[d]imidazol-1-yl)phenyl)acetamide] gave an inhibition at 0.05 µM [1] of ~90%, an inhibition at 0.05 µM [2] of ~90% and an inhibition at 0.05 µM [3] of ~90%. For the same compound, the inhibition at 0.05 µM [4] was ~90%, the “inhibition of GKA” value [5] was ~90% and the “inhibition of pRET” value [6] was “strongly inhibited”.
